Measurements from US20240174690A1, “ANNULATED 2-AMINO-3-CYANO THIOPHENES AND DERIVATIVES FOR THE TREATMENT OF CANCER” (BOEHRINGER INGELHEIM INTERNATIONAL GMBH, priority 2021, published 2024).
Where two headings read alike, the source gives them in different places.

What was measured:
AsPC-1 cells = experiment: AsPC-1 CTG proliferation assay (120 h) (pancreatic cancer, G12D); format: cell-based; conditions: Homo sapiens, ASPC1
Method: AsPC-1 CTG Proliferation Assay (120 h) (Pancreatic Cancer, G12D)
The CTG assay is designed to measure quantitatively the proliferation of AsPC-1 cells (ATCC […]), using the CellTiter Glow Assay Kit (Promega G7571). Cells are grown in RPMI medium (ATCC) supplemented with Fetal Calf Serum (Life Technologies, Gibco BRL, Cat. No. 10270-106). On “day 0” 2000 AsPC-1 cells are seeded in 60 μL RPMI ATCC+10% FCS+Penstrep in a 384-well plate, flat and clear bottom (Greiner, PNr. 781091). Cells are then incubated in the plates at 37° C. in a CO2 incubator overnight. On day 1, compounds (10 mM stock in DMSO) are added with the ECHO acoustic liquid handler system (Beckman Coulter), including DMSO controls. Plates are incubated for 120 h, and cell viability is measured using CellTiter-Glo luminescent cell viability reagent (Promega product code G7570). Viability (stated as percent of control) is defined as relative luminescence units RLU of each well divided by the RLU of cells in DMSO controls. IC50 values are determined from viability measurements by non-linear regression using a four-parameter model.

LOVO cells = experiment: LOVO CTG proliferation assay (120 h) (CRC, G13D); format: cell-based; conditions: Homo sapiens, CTG 120 h
Method: LOVO CTG Proliferation Assay (120 h) (CRC, G13D)
LOVO cells (ATCC CCL-229) are dispensed into 384-well plates, flat and clear bottom (Greiner, PNr. 781091) at a density of 1000 cells per well in 60 μL DMEM (Sigma D6429)+10% Fetal Calf Serum (HyClone, PNr.: SH30084.03) and incubated at 37° C. in a CO2 incubator overnight. The next day, compounds (10 mM stock in DMSO) are added with the ECHO acoustic liquid handler system (Beckman Coulter), including DMSO controls. Plates are incubated for 120 h, and cell viability is measured using CellTiter-Glo luminescent cell viability reagent (Promega product code G7570). Viability (stated as percent of control) is defined as relative luminescence units RLU of each well divided by the RLU of cells in DMSO controls. IC50 values are determined from viability measurements by non-linear regression using a four-parameter model.

NCI-H358 cells = experiment: NCI-H358 CTG proliferation assay (120 h) (NSCLC, G12C); format: cell-based, human; conditions: Homo sapiens
Method: NCI-H358 CTG Proliferation Assay (120 h) (NSCLC, G12C)
NCI-H358 cells (ATCC No. CRL-5807) are dispensed into white bottom opaque 96 well plates (Perkin Elmer cat no. 5680) at a density of 2000 cells per well in 100 μL RPMI-1640 ATCC-Formulation (Gibco #A10491)+10% FCS (fetal calf serum) (assay 1) or into black 384-well plates, flat and clear bottom (Greiner, PNr. 781091) at a density of 200 cells per well in 60 μl RPMI-1640 ATCC-Formulation (Gibco #A10491)+10% FCS (fetal calf serum) (assay 2). […] Compounds (10 mM stock in DMSO) are added at logarithmic dose series using the HP Digital Dispenser D300 (Tecan) (assay 1) or the ECHO acoustic liquid handler system (Beckman Coulter) (assay 2), normalizing for added DMSO and including DMSO controls. For the TO time point measurement, untreated cells are analyzed at the time of compound addition. Plates are incubated for 120 h, and cell viability is measured using CellTiter-Glo luminescent cell viability reagent (Promega product code G7570). Viability (stated as percent of control) is defined as relative luminescence units RLU of each well divided by the RLU of cells in DMSO controls. IC50 values are determined from viability measurements by non-linear regression using a four parameter model.

[1] = Caco-2 assay (permeability PappAB, PappBA, efflux ratio); format: in vitro ADME; conditions: human, Caco-2, 10 μM test compound, pH 7.4; for Papp A→B at 90 min, 10 μM: apical to basolateral; for efflux ratio at 90 min, 10 μM: efflux ratio PappBA/PappAB, read-out: Caco ER
From the text: The assay provides information on the potential of a compound to pass the cell membrane, on the extent of oral absorption as well as on whether the compound is actively transported by uptake and/or efflux transporters. Permeability measurements across polarized, confluent Caco-2 cell monolayers grown on permeable filter supports (Corning, catalog #3391) are used. […] The receiver and donor compartments contain 0.25% bovine serum albumine (BSA) in assay buffer. Passive diffusion and/or active transport of compounds across the monolayer is measured in both apical to basolateral (a-b) and basolateral to apical (b-a) direction. a-b permeability (PappAB) represents drug absorption from the intestine into the blood and b-a permeability (PappBA) drug secretion from the blood back into the intestine via both passive permeability as well as active transport mechanisms mediated by efflux and uptake transporters that are expressed on the Caco-2 cells. After a pre-incubation of 25-30 min at 37° C., at predefined time points (0, 30, 60 and 90 min), samples were taken from the receiver and donor compartment, respectively. Concentrations of test compounds in samples were measured by HPLC/MS/MS, samples from the donor compartment were diluted 1:50 (v:v) with assay buffer, samples from receiver compartment were measured without dilution.
Apparent permeabilities in a-b (PappAB) and b-a (PappBA) directions are calculated according to the formula:
[formula] • Vrec [mL]: buffer volume in receiver compartment • Cdon [μmol/mL]: concentration of test compound in donor compartment at t=0 • ΔCrec: difference between concentrations of test compound in receiver compartment at start and end of incubation time • Δt: Incubation time • Vrec·ΔCrec/Δt [μmol/min]: Amount of compound transferred to receiver compartment per time • A [cm^2]: filter surface
Caco-2 efflux ratios (ER) are calculated as the ratio of PappBA/PappAB.

[2] = assay 1, CTG, read-out: H358 (assay 1) IC50
[3] = assay 2, CTG, read-out: H358 (assay 2) IC50

SMILES | IC50 (AsPC-1 cells) [nM] | IC50 (LOVO cells) [nM] | IC50 (NCI-H358 cells; [2]) [nM] | IC50 (NCI-H358 cells; [3]) [nM] | Papp A→B at 90 min, 10 μM [1] [×10⁻⁶ cm/s] | efflux ratio at 90 min, 10 μM [1]
C[C@H]1CN(C)CCCN1c1cc(N2CCN(C)CC2)nc(-c2onc3c2CCC[C@@]32CCCc3sc(N)c(C#N)c32)n1 [I-7] | 2370 | 2810 |  |  |  | 
C[C@H](Oc1cc(N2C[C@H](C)NC3(CC3)C2)nc(-c2onc3c2CCC[C@@]32CCCc3sc(N)c(C#N)c32)n1)[C@@H]1CCCN1C [I-8] | 512 | 296 | 874 |  |  | 
C[C@H](Oc1cc(N2CCN3CCC3C2)nc(-c2onc3c2CCC[C@@]32CCCc3sc(N)c(C#N)c32)n1)[C@@H]1CCCN1C (some centres unmarked) [I-9] | 2850 | 649 |  | 1310 |  | 
C[C@H](Oc1cc(N2CCNCC23CCOC3)nc(-c2onc3c2CCC[C@@]32CCCc3sc(N)c(C#N)c32)n1)[C@@H]1CCCN1C (some centres unmarked) [I-10] |  |  |  | 200 | < 2.1 | 
C[C@H](Oc1cc(N2CCNC[C@@]23CCOC3)nc(-c2noc3c2CCC[C@@]32CCCc3sc(N)c(C#N)c32)n1)[C@@H]1CCCN1C [II-51] | 903 | 772 |  | 3360 |  | 
C[C@H](Oc1cc(N2CCOC3(CC3)C2)nc(-c2noc3c2CCC[C@@]32CCCc3sc(N)c(C#N)c32)n1)[C@@H]1CCCN1C [II-61] | 1550 | 276 |  | 1420 |  | 
CO[C@@H]1C[C@@H]([C@H](C)Oc2cc(-c3cnn(C)n3)nc(-c3noc4c3CCC[C@@]43CCCc4sc(N)c(C#N)c43)n2)N(C)C1 [II-62] | 9190 | 2320 |  |  | 19 | 0.3
C[C@H](Oc1cc(N2Cc3cnn(C)c3C2)nc(-c2noc3c2CCC[C@@]32CCCc3sc(N)c(C#N)c32)n1)[C@@H]1CCCN1C [II-63] | 3300 | 640 |  | 66 |  | 
C[C@H](Oc1cc(N2CCNC2=O)nc(-c2noc3c2CCC[C@@]32CCCc3sc(N)c(C#N)c32)n1)[C@@H]1CCCN1C [II-64] | 1070 | 96 | 36 |  |  | 
C[C@H](Oc1cc(-n2cnc3cccnc32)nc(-c2noc3c2CCC[C@@]32CCCc3sc(N)c(C#N)c32)n1)[C@@H]1CCCN1C [II-65] | 3560 | 289 |  | 3220 |  | 
C[C@H](Oc1cc(C2=CCOCC2)nc(-c2noc3c2CCC[C@@]32CCCc3sc(N)c(C#N)c32)n1)[C@@H]1CCCN1C [II-67] | 2800 | 49 |  | 1040 |  | 
C[C@H](Oc1cc(N2CCCC3(COC3)C2)nc(-c2noc3c2CCC[C@@]32CCCc3sc(N)c(C#N)c32)n1)[C@@H]1CCCN1C [II-72] | 783 | 55 |  | 9 |  | 
C[C@H](Oc1cc(N2CCCC2=O)nc(-c2noc3c2CCC[C@@]32CCCc3sc(N)c(C#N)c32)n1)[C@@H]1CCCN1C [II-73] | 1810 | 250 |  |  |  | 
C[C@H](Oc1cc(-c2cnn(C)c2)nc(-c2noc3c2CCC[C@@]32CCCc3sc(N)c(C#N)c32)n1)[C@@H]1CCCN1C [II-74] | 3210 | 319 |  | 1680 |  | 
C[C@H](Oc1cc(N2CCOC3(COC3)C2)nc(-c2noc3c2CCC[C@@]32CCCc3sc(N)c(C#N)c32)n1)[C@@H]1CCCN1C [II-77] | 738 | 39 | 51 | 9 |  | 
C[C@H](Oc1cc(-c2ccncc2)nc(-c2noc3c2CCC[C@@]32CCCc3sc(N)c(C#N)c32)n1)[C@@H]1CCCN1C [II-78] | 2120 | 175 |  | 170 |  | 
Cc1nccn1-c1cc(O[C@@H](C)[C@@H]2CCCN2C)nc(-c2noc3c2CCC[C@@]32CCCc3sc(N)c(C#N)c32)n1 [II-79] | 2830 | 106 |  |  |  | 
C[C@H](Oc1cc(-c2cncs2)nc(-c2noc3c2CCC[C@@]32CCCc3sc(N)c(C#N)c32)n1)[C@@H]1CCCN1C [II-80] | 5080 | 561 |  |  |  | 
C[C@H](Oc1cc(-c2ccn(C3COC3)n2)nc(-c2noc3c2CCC[C@@]32CCCc3sc(N)c(C#N)c32)n1)[C@@H]1C[C@H](F)CN1C [II-83] | 5130 | 2200 |  |  |  | 
C[C@H](Oc1cc(-c2ccn(-c3ccsc3)n2)nc(-c2noc3c2CCC[C@@]32CCCc3sc(N)c(C#N)c32)n1)[C@@H]1CCCN1C [II-84] | 3060 | 286 |  | > 25000 |  | 
C[C@H](Oc1cc(-c2cn(C3COC3)nn2)nc(-c2noc3c2CCC[C@@]32CCCc3sc(N)c(C#N)c32)n1)[C@@H]1CCCN1C [II-100] | 9770 | 83 |  |  |  | 
C[C@H](Oc1cc(-n2ccc(C#N)n2)nc(-c2noc3c2CCC[C@@]32CCCc3sc(N)c(C#N)c32)n1)[C@@H]1CCCN1C [II-102] | 2770 | 76 |  |  |  | 
C[C@H](Oc1cc(-c2ccn3ncnc3c2)nc(-c2noc3c2CCC[C@@]32CCCc3sc(N)c(C#N)c32)n1)[C@@H]1CCCN1C [II-104] |  |  |  | 391 |  | 4.2
CO[C@@H]1C[C@@H]([C@H](C)Oc2cc(-c3ccn(C4COC4)n3)nc(-c3noc4c3CCC[C@@]43CCCc4sc(N)c(C#N)c43)n2)N(C)C1 [II-107] | 7270 | 1010 |  |  | 10 | 2.4
C[C@H](Oc1cc(-n2ccncc2=O)nc(-c2noc3c2CCC[C@@]32CCCc3sc(N)c(C#N)c32)n1)[C@@H]1CCCN1C [II-116] | 6520 | 8 |  |  |  | 
